According to patent publication US11691962B2 (eXIthera Pharmaceuticals, Inc., priority 2018, dated 2023):

Assays:
[1] = Caco-2 cell permeability assay; format: in vitro ADME, human; settings: human, 37° C.; for Papp A→B at 60 min, 10 μM: Caco-2, apical to basolateral; for Papp B→A at 40 min, 10 μM: Caco-2, basolateral to apical
In short: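 Caco-2 monolayers (days 21-25 post-seeding) received 10 μM compound in HBSS-MES pH 6.5 or HBSS-HEPES pH 7.4 (1% DMSO) at 37 °C, for 60 min A-B or 40 min B-A. Donor and receiver samples were quantified by HPLC-MS/MS (SRM), and Papp and recovery were calculated.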

[2] = Aqueous solubility in PBS by HPLC-UV/VIS; format: physicochemical; settings: phosphate buffered saline, aqueous buffer, kinetic from dmso stock; PBS pH 7.4, 2% DMSO, 24 h at room temperature
In short: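 Compound diluted to 200 μM in PBS pH 7.4 from DMSO stock (2% DMSO final), incubated 24 h at room temperature, then centrifuged. Supernatant analysed by HPLC-UV/VIS; solubility (μM) from principal-peak area versus a 200 μM calibration standard. Range approximately 0.5–200 μM.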

[3] = Plasma protein binding by equilibrium dialysis; format: in vitro ADME; settings: both sexes, pH 7.4, pooled human plasma, 4 hours at 37° C., read-out: PPB (%)
In short: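 Pooled mixed-gender human plasma spiked with compound at 10 μM was dialysed against PBS pH 7.4 for 4 h at 37°C. Both compartments were quantified by HPLC-MS/MS, and % bound was calculated from plasma vs buffer peak areas.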

[4] = target: Thrombin (Homo sapiens (Human), UniProt P00734); assay: Dose response assay for protease inhibitors: thrombin; format: biochemical; settings: selectivity, thrombin over Factor XIa
In short: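 Fluorogenic AMC-peptide cleavage in 20 mM Hepes pH 7.4, 150 mM NaCl, 0.02% Tween 20; 100 μM stock substrate dilution (Glp-Pro-Arg-AMC for thrombin/trypsin; Pro-Phe-Arg-AMC or Boc-Leu-Gly-Arg-AMC for Factor Xa). Enzyme diluted to 0.5 nM, added last to two-fold compound series; kinetic read at 30° C, 30 min (Factor Xa 60 min); IC50 fitted.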

For CC[C@@H](NC(=O)N1C(=O)[C@H](Cc2ccnc(N)c2)[C@H]1C(=O)N(C)c1ccnn1C)c1ccccc1 [Compound 1-92, (2S,3R)-3-((2-aminopyridin-4-yl)methyl)-N2-(1-methyl 1H-pyrazol-5-yl)-N1-((R)-1-phenylpropyl)-N2-methyl-4-oxoazetidine-1,2-dicarboxamide], the Papp A→B at 60 min, 10 μM [1] was < 10 ×10⁻⁶ cm/s, the Papp B→A at 40 min, 10 μM [1] was 31 to 50 ×10⁻⁶ cm/s and the solubility at 24 h [2] was > 100 µM. For the same compound, the fraction unbound at 4 h, 10 μM [3] was 0.1 to 0.5 and the “Ratio: Thrombin/FXIa” value [4] was “H (“H” indicates 101-1000)”.
In the case of CC[C@@H](NC(=O)N1C(=O)[C@H](Cc2ccnc(N)c2)[C@H]1C(=O)N(C)c1nccn1C)c1ccccc1 [Compound 1-13, (2S,3R)-3-((2-aminopyridin-4-yl)methyl)-N2-(1-methyl-1H-imidazol-2-yl)-N1-((R)-1-phenylpropyl)-N2-methyl-4-oxoazetidine-1,2-dicarboxamide], the Papp A→B at 60 min, 10 μM [1] is reported as < 10 ×10⁻⁶ cm/s, the Papp B→A at 40 min, 10 μM [1] is reported as 11 to 30 ×10⁻⁶ cm/s and the solubility at 24 h [2] is reported as > 100 µM. The fraction unbound at 4 h, 10 μM [3] was 0.1 to 0.5 and the “Ratio: Thrombin/FXIa” value [4] was “I (“I” indicates > 500)”.
With CC[C@@H](NC(=O)N1C(=O)[C@H](Cc2ccnc(N)c2)[C@H]1C(=O)N(C)c1ccn(C)n1)c1ccccc1 [Compound 1-3, (2S,3R)-3-((2-aminopyridin-4-yl)methyl)-N2-(1-methyl-1H-pyrazol-3-yl)-N1-((R)-1-phenylpropyl)-N2-methyl-4-oxoazetidine-1,2-dicarboxamide] the Papp A→B at 60 min, 10 μM [1] was < 10 ×10⁻⁶ cm/s, the Papp B→A at 40 min, 10 μM [1] was 31 to 50 ×10⁻⁶ cm/s and the solubility at 24 h [2] was > 100 µM. For the same compound, the fraction unbound at 4 h, 10 μM [3] was 0.1 to 0.5 and the “Ratio: Thrombin/FXIa” value [4] was “H (“H” indicates 101-1000)”.
For CC[C@@H](NC(=O)N1C(=O)[C@H](Cc2ccnc(N)c2)[C@H]1C(=O)N(C)c1cnn(C)c1)c1ccccc1 [Compound 1-88, (2S,3R)-3-((2-aminopyridin-4-yl)methyl)-N2-(1-methyl-1H-pyrazol-4-yl)-N1-((R)-1-phenylpropyl)-N2-methyl-4-oxoazetidine-1,2-dicarboxamide], the Papp A→B at 60 min, 10 μM [1] was < 10 ×10⁻⁶ cm/s, the Papp B→A at 40 min, 10 μM [1] was 11 to 30 ×10⁻⁶ cm/s and the solubility at 24 h [2] was > 100 µM. For the same compound, the fraction unbound at 4 h, 10 μM [3] was 0.1 to 0.5 and the “Ratio: Thrombin/FXIa” value [4] was “G (“G” indicates 1-100)”.
With CC[C@@H](NC(=O)N1C(=O)[C@H](Cc2ccnc(N)c2)[C@H]1C(=O)N(C)c1cccs1)c1ccccc1 [Compound 1-10, (2S,3R)-3-((2-aminopyridin-4-yl)methyl)-N2-(thiophen-2-yl)-N1-((R)-1-phenylpropyl)-N2-methyl-4-oxoazetidine-1,2-dicarboxamide] the Papp A→B at 60 min, 10 μM [1] was 11 to 30 ×10⁻⁶ cm/s, the Papp B→A at 40 min, 10 μM [1] was 11 to 30 ×10⁻⁶ cm/s and the solubility at 24 h [2] was > 100 µM. For the same compound, the fraction unbound at 4 h, 10 μM [3] was 0.05 to 0.09 and the “Ratio: Thrombin/FXIa” value [4] was “H (“H” indicates 101-1000)”.
With CC[C@@H](NC(=O)N1C(=O)[C@H](Cc2ccnc(N)c2)[C@H]1C(=O)N(C)c1cscn1)c1ccccc1 [Compound 1-8, (2S,3R)-3-((2-aminopyridin-4-yl)methyl)-N2-(4-thiazolyl)-N1-((R)-1-phenylpropyl)-N2-methyl-4-oxoazetidine-1,2-dicarboxamide] the Papp A→B at 60 min, 10 μM [1] was < 10 ×10⁻⁶ cm/s, the Papp B→A at 40 min, 10 μM [1] was 31 to 50 ×10⁻⁶ cm/s and the solubility at 24 h [2] was > 100 µM. For the same compound, the fraction unbound at 4 h, 10 μM [3] was 0.1 to 0.5 and the “Ratio: Thrombin/FXIa” value [4] was “G (“G” indicates 1-100)”.
For CC[C@@H](NC(=O)N1C(=O)[C@H](Cc2ccnc(N)c2)[C@H]1C(=O)N(C)c1ccn(C)n1)c1cccc(Cl)c1 [Compound 1-91, (2S,3R)-3-((2-aminopyridin-4-yl)methyl)-N2-(1-methyl-1H-pyrazol-3-yl)-N1-((R)-1-(3-chlorophenyl)propyl)-N2-methyl-4-oxoazetidine-1,2-dicarboxamide], the Papp A→B at 60 min, 10 μM [1] was < 10 ×10⁻⁶ cm/s, the Papp B→A at 40 min, 10 μM [1] was 11 to 30 ×10⁻⁶ cm/s and the solubility at 24 h [2] was > 100 µM. For the same compound, the fraction unbound at 4 h, 10 μM [3] was 0.1 to 0.5 and the “Ratio: Thrombin/FXIa” value [4] was “H (“H” indicates 101-1000)”.
In the case of CC[C@@H](NC(=O)N1C(=O)[C@H](Cc2ccnc(N)c2)[C@H]1C(=O)N(C)c1cn(C)cn1)c1ccccc1 [Compound 1-90, (2S,3R)-3-((2-aminopyridin-4-yl)methyl)-N2-(1-methyl-1H-imidazol-4-yl)-N1-((R)-1-phenylpropyl)-N2-methyl-4-oxoazetidine-1,2-dicarboxamide], the Papp A→B at 60 min, 10 μM [1] is reported as < 10 ×10⁻⁶ cm/s, the Papp B→A at 40 min, 10 μM [1] is reported as 11 to 30 ×10⁻⁶ cm/s and the solubility at 24 h [2] is reported as > 100 µM. The fraction unbound at 4 h, 10 μM [3] was 0.1 to 0.5 and the “Ratio: Thrombin/FXIa” value [4] was “H (“H” indicates 101-1000)”.
With CC[C@@H](NC(=O)N1C(=O)[C@H](Cc2cc(C)nc(NC)c2)[C@H]1C(=O)N(C)c1ccnn1C)C1CCCCC1 [Compound 1-62, (2S,3R)-3-((2-methylamino-6-methylpyridin-4-yl)methyl)-N2-(1-methyl-1H-pyrazol-5-yl)-N1-((R)-1-cyclohexylpropyl)-N2-methyl-4-oxoazetidine-1,2-dicarboxamide] the Papp A→B at 60 min, 10 μM [1] was 11 to 30 ×10⁻⁶ cm/s, the Papp B→A at 40 min, 10 μM [1] was 11 to 30 ×10⁻⁶ cm/s and the solubility at 24 h [2] was > 100 µM. For the same compound, the fraction unbound at 4 h, 10 μM [3] was 0.1 to 0.5 and the “Ratio: Thrombin/FXIa” value [4] was “I (“I” indicates > 500)”.
With CC[C@@H](NC(=O)N1C(=O)[C@H](Cc2ccnc(N)c2)[C@H]1C(=O)N(C)c1nccn1C)c1cccc(Cl)c1 [Compound 1-35, (2S,3R)-3-((2-aminopyridin-4-yl)methyl)-N2-(1-methyl-1H-imidazol-2-yl)-N1-((R)-1-(3-chlorophenyl)propyl)-N2-methyl-4-oxoazetidine-1,2-dicarboxamide] the Papp A→B at 60 min, 10 μM [1] was < 10 ×10⁻⁶ cm/s, the Papp B→A at 40 min, 10 μM [1] was 31 to 50 ×10⁻⁶ cm/s and the solubility at 24 h [2] was > 100 µM. For the same compound, the fraction unbound at 4 h, 10 μM [3] was 0.1 to 0.5 and the “Ratio: Thrombin/FXIa” value [4] was “H (“H” indicates 101-1000)”.
In the case of CC[C@@H](NC(=O)N1C(=O)[C@H](Cc2ccnc(N)c2)[C@H]1C(=O)N(C)c1nccn1C)c1ccc(C)nc1 [Compound 1-81, (2S,3R)-3-((2-aminopyridin-4-yl)methyl)-N2-(1-methyl-1H-imidazol-2-yl)-N1-((R)-1-(6-methylpyridin-3-yl)propyl)-N2-methyl-4-oxoazetidine-1,2-dicarboxamide], the Papp A→B at 60 min, 10 μM [1] is reported as < 10 ×10⁻⁶ cm/s, the Papp B→A at 40 min, 10 μM [1] is reported as < 10 ×10⁻⁶ cm/s and the solubility at 24 h [2] is reported as > 100 µM. For the same compound, the fraction unbound at 4 h, 10 μM [3] was < 0.5 and the “Ratio: Thrombin/FXIa” value [4] was “H (“H” indicates 101-1000)”.
For CC[C@@H](NC(=O)N1C(=O)[C@H](Cc2cc(C)nc(N)c2)[C@H]1C(=O)N(C)c1ccn(C)n1)c1cccc(Cl)c1 [Compound 1-89, (2S,3R)-3-((2-amino-6-methylpyridin-4-yl)methyl)-N2-(1-methyl-1H-pyrazol-3-yl)-N1-((R)-1-(3-chlorophenyl)propyl)-N2-methyl-4-oxoazetidine-1,2-dicarboxamide], the Papp A→B at 60 min, 10 μM [1] was < 10 ×10⁻⁶ cm/s, the Papp B→A at 40 min, 10 μM [1] was 11 to 30 ×10⁻⁶ cm/s and the solubility at 24 h [2] was > 100 µM. The fraction unbound at 4 h, 10 μM [3] was 0.1 to 0.5 and the “Ratio: Thrombin/FXIa” value [4] was “H (“H” indicates 101-1000)”.
